Test results published in patent US8980934B2, “Kinase inhibitors and method of treating cancer with same” (University Health Network, priority 2012, dated 2015).

Tests used:
Test in all cases: Cancer cell growth inhibition, Sulforhodamine B assay
Assay type in all cases: cell-based
[1] = system: PA-1 ovarian cancer cells; details: 120 h; PA-1, 5 days culture, SRB; read-out: Cancer Cell Line GI50 Range PA-1
Procedure: (§1) Breast cancer cells (MDA-MB-231), colon cancer cells (HCT116) and ovarian cancer cells (PA-1) were seeded (1000 to 4000 in 80 μl per well depending on the cell growth rate) into 96 well plates 24 hours before compound overlay. Compounds were prepared as 10 mM stock solutions in 100% DMSO which were diluted with DMEM (Dulbecco's Modified Eagle's Medium) cell growth Medium (Invitrogen, Burlington, ON, Canada) containing 10% FBS (Fetal Bovine Serum) to concentrations ranging from 50 nM to 250 μM. Aliquots (20 μl) from each concentration were overlaid to 80 μl of the pre-seeded cells in the 96 well plates to make final concentrations of 10 nM to 50 μM. The cells were cultured for 5 days before the Sulforhodamine B assay (SRB) was performed to determine the compound's cell growth inhibition activity.
(§2) Sulforhodamine B (purchased from Sigma, Oakville, ON, Canada) is a water-soluble dye that binds to the basic amino acids of the cellular proteins. Thus, colorimetric measurement of the bound dye provides an estimate of the total protein mass that is related to the cell number. the cells are fixed in situ by gently aspirating off the culture media and adding 50 μl ice cold 10% Trichloroacetic Acid (TCA) per well and incubate at 4° C. for 30-60 min. The plates are washed with H2O five times and allowed to air dry for 5 min. Addition of 50 μl 0.4% (w/v) SRB solution in 1% (v/v) acetic acid to each well and incubatation for 30 min at RT completes the staining reaction. Following staining, plates are washed four times with 1% acetic acid to remove unbound dye and then allowed to air dry for 5 min. The stain is solubilized with 100 μl of 10 mM Tris pH 10.5 per well. Absorbance is read at 570 nm.
(§3) The percentage (%) of relative growth inhibition was calculated by comparing to DMSO treated only cells (100%). GI50's were determined for compounds with cytotoxic activity. The GI50 was calculated using GraphPad PRISM software (GraphPad Software, Inc., San Diego, Calif., USA). GI50 (growth inhibition) is the compound concentration that causes 50% inhibition of cell growth.
(§4) In Table 1 below, GI50 value ranges for several compound examples against breast cancer cell lines (MDA-MB-231), colon cancer cell lines (HCT116) and ovarian cancer cell lines (PA-1) are given. […] The GI50 ranges are indicated as “A,” “B,” and “C,” for values less than or equal to 0.1 μM; those greater than 0.1 μM and less than or equal to 0.5 μM; and those greater than 0.5 μM, respectively.

[2] = system: HCT116 colon cancer cells; details: Homo sapiens, HCT-116, 120 h; HCT116, 5 days culture, SRB; read-out: Cancer Cell Line GI50 Range HCT116
Procedure: as §1, §2, §3, §4

[3] = system: MDA-MB-231 breast cancer cells; details: Homo sapiens, 120 h; MDA-MB-231, 5 days culture, SRB; read-out: Cancer Cell Line GI50 Range MDA-MB-231
Procedure: as §1, §2, §3, §4

| Structure (SMILES) | GI50 [1] | GI50 [2] | GI50 [3] |
| --- | --- | --- | --- |
| O=C(N[C@@H](c1ccccn1)C1CC1)c1ccc2[nH]nc(-c3ccc(N4CC5(CCO5)C4)cc3)c2c1 [Example A22, (R)-3-(4-(1-Oxa-6-azaspiro[3.3]heptan-6-yl)phenyl)-N-(cyclopropyl(pyridin-2-yl)methyl)-1H-indazole-5-carboxamide] | ≤ 100 nM | ≤ 100 nM | ≤ 100 nM |
| CC(C)[C@H](NC(=O)c1ccc2[nH]nc(-c3ccc(N4CC5(CN(C)C5)C4)cc3)c2c1)c1ccccc1Cl [Example A28, (S)-N-(1-(2-Chlorophenyl)-2-methylpropyl)-3-(4-(6-methyl-2,6-diazaspiro[3.3]heptan-2-yl)phenyl)-1H-indazole-5-carboxamide] | ≤ 100 nM | ≤ 100 nM | ≤ 100 nM |
| O=C(N[C@@H](c1ccsc1)C1CCCC1)c1ccc2[nH]nc(-c3ccc(N4CC5(COC5)C4)cc3)c2c1 [Example A9, 3-(4-(2-Oxa-6-azaspiro[3.3]heptan-6-yl)phenyl)-N-((R)-cyclopentyl(thiophen-3-yl)methyl)-1H-indazole-5-carboxamide] | 100 to 500 nM | 100 to 500 nM | > 500 nM |
| O=C(NC(c1ccccn1)C1CC1)c1ccc2[nH]nc(-c3ccc(N4CCC5(COC5)C4)cc3)c2c1 (stereo not drawn) [Example A16, 3-(4-(2-Oxa-6-azaspiro[3.4]octan-6-yl)phenyl)-N-(cyclopropyl(pyridin-2-yl)methyl)-1H-indazole-5-carboxamide] | 100 to 500 nM | 100 to 500 nM | 100 to 500 nM |
| O=C(N[C@H](c1ccccn1)C1CC1)c1ccc2[nH]nc(-c3ccc(N4CC5(CCO5)C4)cc3)c2c1 [Example A21, (S)-3-(4-(1-Oxa-6-azaspiro[3.3]heptan-6-yl)phenyl)-N-(cyclopropyl(pyridin-2-yl)methyl)-1H-indazole-5-carboxamide] | ≤ 100 nM | ≤ 100 nM | ≤ 100 nM |
| CC(C)C[C@H](NC(=O)c1ccc2[nH]nc(-c3ccc(N4CC5(COC5)C4)cc3)c2c1)c1ccccn1 [Example A27, (S)-3-(4-(2-oxa-6-azaspiro[3.3]heptan-6-yl)phenyl)-N-(3-methyl-1-(pyridin-2-yl)butyl)-1H-indazole-5-carboxamide] | ≤ 100 nM | ≤ 100 nM | ≤ 100 nM |
| O=C(N[C@H](c1ncccn1)C1CCCC1)c1ccc2[nH]nc(-c3ccc(N4CC5(COC5)C4)cc3)c2c1 [Example A25, (S)-3-(4-(2-oxa-6-azaspiro[3.3]heptan-6-yl)phenyl)-N-(cyclopentyl(pyrimidin-2-yl)methyl)-1H-indazole-5-carboxamide] | ≤ 100 nM | ≤ 100 nM | ≤ 100 nM |
| O=C(N[C@@H](c1ncccn1)C1CCCC1)c1ccc2[nH]nc(-c3ccc(N4CC5(COC5)C4)cc3)c2c1 [Example A26, (R)-3-(4-(2-oxa-6-azaspiro[3.3]heptan-6-yl)phenyl)-N-(cyclopentyl(pyrimidin-2-yl)methyl)-1H-indazole-5-carboxamide] | ≤ 100 nM | ≤ 100 nM | ≤ 100 nM |
| CN1CC2(C1)CN(c1ccc(-c3n[nH]c4ccc(C(=O)N[C@H](c5ccccc5)C5CC5)cc34)cc1)C2 [Example A29, (S)-N-(Cyclopropyl(phenyl)methyl)-3-(4-(6-methyl-2,6-diazaspiro[3.3]heptan-2-yl)phenyl)-1H-indazole-5-carboxamide] | ≤ 100 nM | ≤ 100 nM | ≤ 100 nM |
| O=C(N[C@H](c1ccccc1)C1CC1)c1ccc2[nH]nc(-c3ccc(N4CC5(CCOCC5)C4)cc3)c2c1 [Example A17, (S)-3-(4-(7-Oxa-2-azaspiro[3.5]nonan-2-yl)phenyl)-N-(cyclopropyl(phenyl)methyl)-1H-indazole-5-carboxamide] | 100 to 500 nM | 100 to 500 nM | 100 to 500 nM |
| CC(C)[C@@H](NC(=O)c1ccc2[nH]nc(-c3ccc(N4CC5(COC5)C4)cc3)c2c1)c1ccccc1Cl [Example A13, 3-(4-(2-Oxa-6-azaspiro[3.3]heptan-6-yl)phenyl)-N-((R)-1-(2-chlorophenyl)-2-methylpropyl)-1H-indazole-5-carboxamide] | ≤ 100 nM | ≤ 100 nM | 100 to 500 nM |
| O=C(NC(c1nccs1)C1CC1)c1ccc2[nH]nc(-c3ccc(N4CC5(COC5)C4)cc3)c2c1 (stereo not drawn) [Example A14, 3-(4-(2-Oxa-6-azaspiro[3.3]heptan-6-yl)phenyl)-N-(cyclopropyl(thiazol-2-yl)methyl)-1H-indazole-5-carboxamide] | ≤ 100 nM | ≤ 100 nM | ≤ 100 nM |

Continued, values first:

| GI50 [1] | GI50 [2] | GI50 [3] | Structure (SMILES) |
| --- | --- | --- | --- |
| ≤ 100 nM | ≤ 100 nM | ≤ 100 nM | O=C(N[C@H](c1ccccn1)C1CCCC1)c1ccc2[nH]nc(-c3ccc(N4CC5(CC(O)C5)C4)cc3)c2c1 [Example A33, (S)-N-(Cyclopentyl(pyridin-2-yl)methyl)-3-(4-(6-hydroxy-2-azaspiro[3.3]heptan-2-yl)phenyl)-1H-indazole-5-carboxamide] |
| ≤ 100 nM | ≤ 100 nM | ≤ 100 nM | O=C(N[C@H](c1ccccn1)C1CCCC1)c1ccc2[nH]nc(-c3ccc(N4CC5(C4)CN(C4COC4)C5)cc3)c2c1 [Example A31, (S)-N-(Cyclopentyl(pyridin-2-yl)methyl)-3-(4-(6-(oxetan-3-yl)-2,6-diazaspiro[3.3]heptan-2-yl)phenyl)-1H-indazole-5-carboxamide] |
| 100 to 500 nM | 100 to 500 nM | 100 to 500 nM | CC(C)C[C@H](NC(=O)c1ccc2[nH]nc(-c3ccc(N4CCC45COC5)cc3)c2c1)c1ccccn1 [Example A35, (S)-3-(4-(6-Oxa-1-azaspiro[3.3]heptan-1-yl)phenyl)-N-(3-methyl-1-(pyridin-2-yl)butyl)-1H-indazole-5-carboxamide] |
| ≤ 100 nM | ≤ 100 nM | ≤ 100 nM | CC(C)[C@H](NC(=O)c1ccc2[nH]nc(-c3ccc(N4CC5(C4)CN(C4COC4)C5)cc3)c2c1)c1ccccc1Cl [Example A30, (S)-N-(1-(2-Chlorophenyl)-2-methylpropyl)-3-(4-(6-(oxetan-3-yl)-2,6-diazaspiro[3.3]heptan-2-yl)phenyl)-1H-indazole-5-carboxamide] |
| 100 to 500 nM | 100 to 500 nM | 100 to 500 nM | O=C(N[C@H](c1ccccn1)C1CCCC1)c1ccc2[nH]nc(-c3ccc(N4CCC45COC5)cc3)c2c1 [Example A34, (S)-3-(4-(6-Oxa-1-azaspiro[3.3]heptan-1-yl)phenyl)-N-(cyclopentyl(pyridin-2-yl)methyl)-1H-indazole-5-carboxamide] |
| ≤ 100 nM | ≤ 100 nM | ≤ 100 nM | O=C(N[C@@H](c1ncccn1)C1CCCC1)c1ccc2[nH]nc(-c3ccc(N4CCC45COC5)cc3)c2c1 [Example A37, (R)-3-(4-(6-oxa-1-azaspiro[3.3]heptan-1-yl)phenyl)-N-(cyclopentyl(pyrimidin-2-yl)methyl)-1H-indazole-5-carboxamide] |
